Drawing on ChEMBL document CHEMBL2311320, “A-ring modification of SCH 900229 and related chromene sulfone γ-secretase inhibitors” (Bioorg Med Chem Lett, 2013), this text covers IC50 for 16 compounds.

Usually pIC50 stands for the IC50 on a negative log10 scale, so that one unit is a factor of ten.

pIC50: −log10 of the molar value.

Type in all cases: cell-based, Homo sapiens
Test [1] deals with Gamma-secretase. The experiment in a line: Inhibition of gamma-secretase (unknown origin) expressed in HEK293 cells co-expressing […] mutant assessed as reduction of amyloid beta-42 production.
The target of test [2] is Gamma-secretase. The test is described as follows: Inhibition of gamma-secretase (unknown origin) expressed in HEK293 cells co-expressing […] mutant assessed as reduction of amyloid beta-40 production.
For test [3], the target named is Gamma-secretase. The experiment in a line: Inhibition of gamma-secretase (unknown origin) expressed in HEK293 cell membrane co-expressing […] mutant assessed as reduction of amyloid beta-40 production.

Regarding `CS(=O)(=O)CC[C@@H]1OCC[C@@]2(S(=O)(=O)c3ccc(C(F)(F)F)cc3)c3c(F)ccc(F)c3OC[C@@H]12`, the pIC50 was 8.40 at Gamma-secretase [1], 7.96 on Gamma-secretase [2] and 7.82 on Gamma-secretase [3].

Regarding `CS(=O)(=O)CC[C@@H]1OCC[C@@]2(S(=O)(=O)c3ccc(C#N)cc3)C3=C(OC[C@@H]12)C(F)(F)C=CC3=O`, the pIC50 was 6.39 on Gamma-secretase [1], 5.80 on Gamma-secretase [2] and 7.68 at Gamma-secretase [3].

Regarding `CS(=O)(=O)CC[C@@H]1CCC[C@@]2(S(=O)(=O)c3ccc(C(F)(F)F)cc3)c3c(F)ccc(F)c3OC[C@@H]12`, the values for the pIC50 on Gamma-secretase [1], at Gamma-secretase [2] and on Gamma-secretase [3] were 7.68, 7.20 and 7.37, respectively.

For `CC[C@@H]1C[C@@H]2[C@@H](CC[C@@]3(S(=O)(=O)c4ccc(C(F)(F)F)cc4)C4=C(OC[C@@H]23)C(F)(F)C=CC4=O)NS1(=O)=O`, the pIC50 was 7.60 at Gamma-secretase [1], 7.34 at Gamma-secretase [2] and 8.41 on Gamma-secretase [3].

Turning to `CS(=O)(=O)CC[C@@H]1OCC[C@@]2(S(=O)(=O)c3ccc(Cl)cc3)C3=C(OC[C@@H]12)C(F)(F)C=CC3=O`, the pIC50 was 7.96 at Gamma-secretase [1], 7.59 at Gamma-secretase [2] and 8.92 at Gamma-secretase [3].

With `O=S(=O)(NC[C@@H]1CC[C@@]2(S(=O)(=O)c3ccc(C(F)(F)F)cc3)c3c(F)ccc(F)c3OC[C@H]2C1)C1CC1`, the pIC50 is 7.72 at Gamma-secretase [1], 8.17 at Gamma-secretase [2] and 7.04 on Gamma-secretase [3].

Take `O=C1C=CC(F)(F)C2=C1[C@]1(S(=O)(=O)c3ccc(C(F)(F)F)cc3)CCC[C@@H](CNS(=O)(=O)C(F)(F)F)[C@@H]1CO2`: the values for the pIC50 on Gamma-secretase [1], on Gamma-secretase [2] and at Gamma-secretase [3] were 6.70, 6.48 and 7.11, respectively.

As for `CC[C@@H]1C[C@@H]2[C@@H](CC[C@@]3(S(=O)(=O)c4ccc(C#N)cc4)C4=C(OC[C@@H]23)C(F)(F)C=CC4=O)NS1(=O)=O`, the values for the pIC50 on Gamma-secretase [1], on Gamma-secretase [2] and at Gamma-secretase [3] were 7.51, 6.96 and 8.46, respectively.

As to `CS(=O)(=O)CC[C@@H]1OCC[C@@]2(S(=O)(=O)c3ccc(C#N)cc3)c3c(F)ccc(F)c3OC[C@@H]12`, the negative-log IC50 (pIC50) on Gamma-secretase [1] was 8.05; at Gamma-secretase [2] it was 7.60; at Gamma-secretase [3], 7.18.

For the compound `O=S(=O)(NC[C@@H]1CCC[C@@]2(S(=O)(=O)c3ccc(C(F)(F)F)cc3)c3c(F)ccc(F)c3OC[C@@H]12)C(F)(F)F`, the pIC50 at Gamma-secretase [1] was 7.49; at Gamma-secretase [2] it was 7.14; on Gamma-secretase [3] it was 7.27.

Consider `CS(=O)(=O)CC[C@@H]1CCC[C@@]2(S(=O)(=O)c3ccc(C(F)(F)F)cc3)C3=C(OC[C@@H]12)C(F)(F)C=CC3=O`, for which the results for the pIC50 on Gamma-secretase [1], at Gamma-secretase [2] and at Gamma-secretase [3] were 7.31, 6.89 and 8.72, respectively.

As for `CC[C@@H]1C[C@@H]2[C@@H](CC[C@@]3(S(=O)(=O)c4ccc(C(F)(F)F)cc4)c4c(F)ccc(F)c4OC[C@@H]23)NS1(=O)=O`, the pIC50 at Gamma-secretase [1] was 8.70; on Gamma-secretase [2] it was 8.30; at Gamma-secretase [3] it was 8.72.

As for `CS(=O)(=O)CC[C@@H]1OCC[C@@]2(S(=O)(=O)c3ccc(Cl)cc3)c3c(F)ccc(F)c3OC[C@@H]12`, the pIC50 was 9.00 at Gamma-secretase [1], 8.40 at Gamma-secretase [2] and 8.89 on Gamma-secretase [3].

Regarding `CC[C@@H]1C[C@@H]2[C@@H](CC[C@@]3(S(=O)(=O)c4ccc(C#N)cc4)c4c(F)ccc(F)c4OC[C@@H]23)NS1(=O)=O`, the pIC50 was 8.70 at Gamma-secretase [1], 8.40 on Gamma-secretase [2] and 8.33 on Gamma-secretase [3].

Regarding `O=C1C=CC(F)(F)C2=C1[C@]1(S(=O)(=O)c3ccc(C(F)(F)F)cc3)CC[C@@H](NS(=O)(=O)C3CC3)C[C@@H]1CO2`, the negative-log IC50 (pIC50) at Gamma-secretase [1] was 6.96; at Gamma-secretase [2], 6.55; at Gamma-secretase [3], 8.17.

For `CS(=O)(=O)CC[C@@H]1OCC[C@@]2(S(=O)(=O)c3ccc(C(F)(F)F)cc3)C3=C(OC[C@@H]12)C(F)(F)C=CC3=O`, the pIC50 on Gamma-secretase [1] is 7.57; on Gamma-secretase [2], 7.25; at Gamma-secretase [3], 8.74.
